From patent US4638005A, “Monoquaternized pyrazinium compounds and their use as electron carriers in photosynthetic processes” (The Coca-Cola Company, priority 1983, dated 1987)
Structures can show the parent of a compound that is named as a salt.

Assays:
[1] = Polarographic half-wave potential (first wave reduction); type: physicochemical; details: 0.1 M phosphate buffer pH 7.55, 25° C.
Excerpt: Sci., 65, 1471(1976). Therefore, it was of interest to measure polarographically the half-wave potentials of the several pyrazinium salts under consideration, to determine the possible effect of structure upon their redox potentials.

nitrogenase [2] = target: T1, nitrogenase (Azotobacter vinelandii, UniProt P00459); test: Chloroplast-coupled evolution of hydrogen by nitrogenase in the absence of substrate; type: biochemical; details: for ACTIVITY RELATIVE TO FERREDOXIN (%) / ACTIVITY (nmoles H2 /mg protein/min): Table II, hydrogen evolution; for ACTIVITY (nmoles H2 /mg protein/min): no nitrogen or acetylene, synthetic carriers 2 mM, ferredoxin 0.2 mM
T1 construct: the nitrogenase sample was prepared from a culture of Azotobacter vinelandii; endogenous in cells; host or cells: Azotobacter vinelandii culture; French press lysate, 10,000 x g supernatant (crude)
Method: (§1) For the bioassay, the nitrogenase sample was prepared from a culture of Azotobacter vinelandii grown to a cell density of about 1 g/l. The cells harvested by centrifugation were broken in a French press, cell debris spun off at 10,000 XG for 1 hr., and the supernatant containing 40 mg/ml protein was used in the bioassay experiments. […] chloroplasts from spinach leaves as described by Benemann were also used. The synthetic carriers were tested in aqueous solutions at concentrations of 2 mM, while the standard, clostridial ferredoxin, was used in 0.2 mM aqueous solution. The concentrations of carriers in the assay mixtures were chosen so as to guarantee carrier saturation conditions. Thus, the observed differences in rates of ethylene production from the substrate acetylene were assigned directly to variations in the efficiency of electron transfer from the illuminated chloroplast to the nitrogenase. The results obtained for acetylene reduction (nitrogen fixation) using the pyrazinium compounds of Examples 1 through 42 are summarized in Table I and are expressed as nmoles of ethylene produced per mg protein per minute.
It has been recognized for sometime the connection existing between hydrogen metabolism and nitrogen fixation. […] When nitrogenase was purified extensively, as mentioned above, it became apparent that in addition to nitrogen, nitrogenase also catalyzed the reduction of protons. The evolution of hydrogen is particularly active in the absence of the normal substrates for nitrogenase (nitrogen, acetylene, cyanide, azide, etc.), and is dependent upon a strong reductant and adenosine triphosphate hydrolysis. Since hydrogen evolution is not inhibited by CO, but reduction of nitrogen and other substrates is, the reduction of protons presumably occurs at a site other than the site of nitrogen reduction, H. C. Winter, et. al., Ann Rev. Biochem, 45, 409 (1976). Accordingly, with the same bioassay system and with exclusion of nitrogen, and acetylene, the activity of the pyrazinium compounds to act as carriers for production of hydrogen has been determined.
The results of this study, which are summarized in Table II, indicate that the pyrazinium salts that mediate the reduction of acetylene with electrons from the photoexcited chloroplast, are also mediating the reduction of protons by the nitrogenase.

nitrogenase [3] = target: T1, nitrogenase; test: Chloroplast-coupled reduction of acetylene to ethylene by nitrogenase (electron carrier bioassay of Benemann); type: biochemical; details: for ACTIVITY RELATIVE TO FERREDOXIN (%) / ACTIVITY (nmoles C2 H4 /mg protein/min): Table I; for ACTIVITY RELATIVE TO FERREDOXIN (%): acetylene reduction to ethylene; for ACTIVITY (nmoles C2 H4 /mg protein/min): illuminated spinach chloroplasts, synthetic carriers 2 mM, clostridial ferredoxin 0.2 mM; for ETHYLENE FORMATION % Ferredoxin Activity: Table III ranking; for % FERREDOXIN ACTIVITY: Table IV, acetylene reduction
Method: The activity of the pyrazinium compounds as electron carriers in an illuminated photocouple process using isolated chloroplasts and the reductive enzyme catalyst nitrogenease has been determined using the bioassay of Benemann, et al., Proc. Natl. Acad. Sci. USA, 64, 1079(1969). In this method, the carrier activity is measured as a function of nitrogenase reduction of acetylene to ethylene, the rate of production of ethylene being the direct measurement.
as §1

T1 sequence (P00459 2-290 limits assumed): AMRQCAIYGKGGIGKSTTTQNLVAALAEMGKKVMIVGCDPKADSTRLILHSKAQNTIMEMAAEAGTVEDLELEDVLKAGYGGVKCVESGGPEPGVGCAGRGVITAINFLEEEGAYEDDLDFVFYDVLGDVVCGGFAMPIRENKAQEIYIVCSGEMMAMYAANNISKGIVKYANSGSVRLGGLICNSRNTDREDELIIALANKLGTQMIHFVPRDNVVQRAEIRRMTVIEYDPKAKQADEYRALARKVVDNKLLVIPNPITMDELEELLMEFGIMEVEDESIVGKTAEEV

Molecule	E1/2 vs. SCE (mV) [1] [mV]	ACTIVITY RELATIVE TO FERREDOXIN (%) (nitrogenase [2])	ACTIVITY (nmoles H2 /mg protein/min) (nitrogenase [2])	ACTIVITY RELATIVE TO FERREDOXIN (%) (nitrogenase [3])	ACTIVITY (nmoles C2 H4 /mg protein/min) (nitrogenase [3])	ETHYLENE FORMATION % Ferredoxin Activity (nitrogenase [3]) [%]	% FERREDOXIN ACTIVITY (nitrogenase [3]) [%]	HYDROGEN EVOLUTION % Ferredoxin Activity (nitrogenase [2]; Table III ranking) [%]
COC(=O)c1c[n+](C)ccn1 [Compound 4500]	-390	0	0.0	0	0.0 nmoles C2 H4 /mg protein/min	0	0	–
C[n+]1ccnc(CS(C)(=O)=O)c1 [Compound 4700]	-611	5	1.4	5	0.7 nmoles C2 H4 /mg protein/min	5	5	–
Cc1c[n+](C)cc(CO)n1.[I-] [Compound 400, 1-Methyl-3-hydroxymethyl-5-methylpyrazinium iodide]	-738	74	19.7	26	3.5 nmoles C2 H4 /mg protein/min	26	26	–
C[n+]1ccnc(C(CC(O)CO)CC(O)CO)c1 (stereo not drawn) [Compound 1700, 1-Methyl-3-[4-(1,2,6,7-tetrahydroxyheptyl)]pyrazinium iodide]	-715	62	16.6	33	4.5 nmoles C2 H4 /mg protein/min	33	33	–
C[n+]1ccnc(C(CCCS(=O)(=O)[O-])CCCS(=O)(=O)O)c1 (stereo not drawn) [Compound 1800, 4-(1-Methyl-3-pyrazinyl)heptane-1,7-disulfonate sodium salt]	-683	129	34.4	124	16.7 nmoles C2 H4 /mg protein/min	124	124	–
CCc1c[n+](C)ccn1 [Compound 4900]	-700	8	2.2	2	0.3 nmoles C2 H4 /mg protein/min	2	2	–
C=Cc1c[n+](C)ccn1 [Compound 5100]	–	–	2.8	–	1.8 nmoles C2 H4 /mg protein/min	13	13	10
C[n+]1ccnc(CS(=O)(=O)[O-])c1 [Compound 2800]	-690	140	37.3	61	8.3 nmoles C2 H4 /mg protein/min	61	61	–
C[n+]1ccnc2ccccc21 [Compound 5200]	-433	0	0.0	0	0.0 nmoles C2 H4 /mg protein/min	0	0	–
C[n+]1ccnc(CCC(O)CO)c1.[I-] (stereo not drawn) [Compound 1500, 1-Methyl-3-(3,4-dihydroxybutyl)pyrazinium iodide]	-683	86	22.9	41	5.5 nmoles C2 H4 /mg protein/min	41	41	–
1-Methyl-3(2)-hydroxymethyl-6(5)-methylpyrazinium iodide [Compound 500]	-751	46	12.3	22	3.0 nmoles C2 H4 /mg protein/min	22	22	–
C[n+]1ccnc(C(=O)O)c1 [Compound 4400]	-613	0	0.0	0	0.0 nmoles C2 H4 /mg protein/min	0	0	–
C[n+]1ccnc(C(O)CO)c1.[I-] (stereo not drawn) [Compound 2200, 1-Methyl-3-(1,2-dihydroxyethyl)pyrazinium iodide]	-704	98	26.2	55	7.5 nmoles C2 H4 /mg protein/min	55	55	–
C[n+]1ccnc(CCCCS(=O)(=O)[O-])c1 [Compound 1801]	-676	106	28.4	79	10.7 nmoles C2 H4 /mg protein/min	79	79	–
CCC(Cc1c[n+](C)ccn1)S(=O)(=O)[O-] (stereo not drawn) [Compound 1000]	-710	73	19.5	95	12.8 nmoles C2 H4 /mg protein/min	95	95	–
Cc1c[n+](CCCS(=O)(=O)[O-])c(C)cn1 [Compound 700, 1-(3-Sulfonylpropyl)-2,5-dimethylpyrazine]	-700	74	19.7	104	14.0 nmoles C2 H4 /mg protein/min	104	104	–
C[n+]1ccnc(CCC(=O)O)c1.[I-] [Compound 3900, 1-Methyl-3-(2-carboxyethyl)pyrazinium iodide]	–	45	11.9	27	3.7 nmoles C2 H4 /mg protein/min	27	–	–
Cc1c[n+](CCCS(=O)(=O)[O-])ccn1 [Compound 600]	-651	106	28.4	64	8.7 nmoles C2 H4 /mg protein/min	64	64	–
C[n+]1ccnc(S(=O)(=O)[O-])c1 [Compound 2000]	-573	100	26.6	61	8.3 nmoles C2 H4 /mg protein/min	61	61	–
